Data: ChEMBL document CHEMBL2346565, “Syntheses and biological evaluation of 1-heteroaryl-2-aryl-1H-benzimidazole derivatives as c-Jun N-terminal kinase inhibitors with neuroprotective effects” (Bioorg Med Chem, 2013)

Key:
[1] = target: T1, Mitogen-activated protein kinase 10 (Homo sapiens, UniProt P53779); experiment: Binding affinity to N-terminal His6X-tagged human recombinant JNK3 catalytic domain expressed in Escherichia coli BL21 (DE3) by surface plasmon resonance analysis
[2] = target: T1, Mitogen-activated protein kinase 10; experiment: Inhibition of JNK3 in human PBMCs assessed as decrease in LPS-induced TNFalpha mRNA level after 4 hrs by real-time reverse transcription-PCR analysis
[3] = target: T1, Mitogen-activated protein kinase 10; experiment: Competitive inhibition of JNK3 (unknown origin) in presence of ATP
[4] = target: Mitogen-activated protein kinase 9 (Homo sapiens, UniProt P45984); experiment: Competitive inhibition of JNK2 (unknown origin) in presence of ATP
Sequence of Mitogen-activated protein kinase 9 (P45984 whole entry): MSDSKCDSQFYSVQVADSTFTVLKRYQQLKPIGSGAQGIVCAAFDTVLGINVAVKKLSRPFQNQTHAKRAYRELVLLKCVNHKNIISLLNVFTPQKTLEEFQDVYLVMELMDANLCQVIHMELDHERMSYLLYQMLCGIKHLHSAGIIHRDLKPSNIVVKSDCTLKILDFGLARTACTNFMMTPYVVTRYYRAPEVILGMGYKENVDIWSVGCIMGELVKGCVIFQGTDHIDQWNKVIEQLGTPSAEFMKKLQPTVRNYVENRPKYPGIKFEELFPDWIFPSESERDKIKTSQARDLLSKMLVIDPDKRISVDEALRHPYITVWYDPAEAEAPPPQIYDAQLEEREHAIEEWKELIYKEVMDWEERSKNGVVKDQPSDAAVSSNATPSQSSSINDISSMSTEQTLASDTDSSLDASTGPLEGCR

T1 sequence (P53779 whole entry, the tested form may be a part): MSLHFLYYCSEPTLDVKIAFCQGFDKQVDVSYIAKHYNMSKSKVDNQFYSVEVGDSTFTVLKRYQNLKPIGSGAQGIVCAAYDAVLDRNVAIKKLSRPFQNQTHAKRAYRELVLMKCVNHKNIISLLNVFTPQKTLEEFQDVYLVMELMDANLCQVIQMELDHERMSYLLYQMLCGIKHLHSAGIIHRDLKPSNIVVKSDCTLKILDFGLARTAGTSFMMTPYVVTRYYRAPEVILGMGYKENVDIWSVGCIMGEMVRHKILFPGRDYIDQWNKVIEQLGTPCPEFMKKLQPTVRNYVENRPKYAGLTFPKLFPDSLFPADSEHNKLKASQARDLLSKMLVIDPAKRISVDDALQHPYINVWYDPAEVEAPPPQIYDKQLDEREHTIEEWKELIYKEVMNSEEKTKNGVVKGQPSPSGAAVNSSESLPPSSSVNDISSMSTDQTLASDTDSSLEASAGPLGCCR

**Q.** Which Kd [1] does the source give for `COc1ccc2c(c1)nc(-c1ccc(C)c(Cl)c1)n2-c1ccnc(NC2CCCCC2)c1` here?
**A.** 18.1 µM

**Q.** `Oc1c2ccccc2c2c3c(cccc13)N=N2` [SP-600125] was tested. Which IC50 [2] did it give?
**A.** 10 µM

**Q.** What about the inhibition [2] of the same compound?
**A.** Dose-dependent effect

**Q.** `Oc1cccc(-c2nc3ccccc3n2-c2ccnc(N[C@@H]3CCCNC3)c2)c1` was tested. Which IC50 [3] did it give?
**A.** 1.86 µM

**Q.** What about the IC50 [4] of the same compound?
**A.** 2.18 µM
